Marks after values point to notes of the source that are not given here.
Key:
[1] = test system: PDGFBB stimulated phosphorylation of ERK1 and ERK2; assay: PDGFBB stimulated phosphorylation of ERK1 and ERK2 in human fetal lung fibroblasts; format: cell-based
[2] = test system: PDGFBB stimulated AKT phosphorylation; assay: In cell Western (ICW), PDGFBB stimulated AKT phosphorylation in human fetal lung fibroblasts; format: cell-based; settings: comparison in words
Description: In cell Western (ICW). […] HLFs were maintained in subculture at no more than 6 passages in DMEM with 5% FBS and 4 mM Glutamax at 37° C., 5% CO2. HLFs were plated and grown to 70-80% confluence in 96 well plates then serum-starved for 48 hours. […] Antibodies were detected using IRDye 680LT goat anti-mouse IgG and IRDye 800W goat a-rabbit IgG conjugated antibodies. After washing, the signal was quantified using an Odyssey Infrared Imaging System (LI-COR). Phosphoprotein signal (800 nm) was normalized to total protein signal (700 nm) acquired from each well and experimental duplicates on same plate were averaged and reported.

rat MCT model [3] = settings: 8 min inhalation 3x/day, two weeks
Description: At the end of the study RVSP pressure was measured; lung and heart fixed in formalin. For measurement of RVSP animals were sedated with isoflurane, intubated via a tracheostomy, and ventilated with a TOPOVENT pressure regulated ventilator (peak inspiratory pressure 18 cm H2O, PEEP 5 cm). After sternotomy, a Scisense high fidelity catheter inserted via the RV apex.
Histology and morphometric analysis. At the end of the study, the heart and lungs were removed from ventilated animals under general anesthesia. Heparinized saline was infused under pressure through the main pulmonary artery. […] The heart was removed, and the RV free wall, interventricular septum and LV free wall dissected and weighed. Buffered formalin (10%) was infused under pressure both through the pulmonary artery and the trachea. Morphometric analysis was performed on H&E stained formalin fixed tissue sectioned at 8 μm. The media area and lumen area of pulmonary arterioles were measured with Image J software by a technician blinded to treatment group. Measurements were made on 20 pulmonary arterioles per section. The ratio of the lumen area to the total media area was determined This ratio normalizes the variation in total pulmonary arteriole area. […] Briefly, pre-capillary arterioles were assigned grade 0 for no evidence of neointimal lesions, grade 1 for less than 50% luminal occlusion, and grade 2 for greater than 50% occlusion.

[4] = Two-chamber plethysmography in the rat MCT+PN model; format: in vivo; set-up: SRaw: unit not given beside the values
Description: Plethysmography. Plethysmography was performed with an EMKA dual chamber plethysmograph and IOX software. Parameters measured included breathing frequency, tidal volume, minute ventilation, peak inspiratory and expiratory flow, and airway resistance (SRaw). Animals were acclimatized to the plethysmograph for three days prior to first data acquisition. Measurements were made prior to the first dose of drug and at the end of the study.

rat MCT model [5] = assay: PK10453 dose response study in the rat MCT model; format: in vivo
Description: Efficacy study in the rat MCT model—PK10453 (Structure 2) dose response study in the rat MCT Model. Male Sprague Dawley rats received MCT 60 mg/kg IPMCT, and after 3 weeks, PK10453 (Structure 2) or vehicle control were administered by inhalation. Four groups were studied: vehicle control (4 min exposure) and three treatment groups of PK10453 (Structure 2) with exposure times 2 min (D2), 4 min (D4), or 8 min (D8) three times a day. These regimens were administered for two weeks. The vehicle consisted of aerosolized 1M tosylic acid neutralized with ammonia vapor as described above. The pH of a solution prepared by dissolving captured aerosol particles in water was measured for every dose and was consistently in the range of 5.5-6.0. At the end of the study, the RV systolic pressure was measured, and the heart chambers dissected and weighed.

SMILES: COc1cc(-c2cncc(N[C@@H](C)c3cccc(NC(=O)c4cncc(C)c4)c3)n2)ccc1O [PK10453, (S)-N-(3-(1-((6-(4-hydroxy-3-methoxyphenyl)pyrazin-2yl)amino)ethyl)phenyl)-5-methylnicotinamide]
- PDGFBB stimulated ppERK1 formation ([1]; 1 uM): effective
- decreasing PDGF BB stimulated ppERK1 and ppERK2, compared to imatinib ([1]; 1 uM and 10 uM): more effective
- IC50 for inhibiting PDGFBB stimulated AKT phosphorylation, compared to imatinib [2]: lower IC50 concentrations compared to imatinib
- End systolic volume (rat MCT model [3]): 99.5 ± 10 µL
- MV ([4]; day 1, D4, mean): 223.24 mL/min
- PEF ([4]; day 1, D4, mean): 11.04
- PIF ([4]; day 1, D4, mean): 9.82
- SRaw ([4]; day 1, D4, mean): 39.73
- TV ([4]; day 1, D4, mean): 1.00 mL
- f ([4]; day 1, D4, mean): 224.68 breaths per minute
- MV ([4]; day 1, D8, mean): 174.68 mL/min
- PEF ([4]; day 1, D8, mean): 9.43
- PIF ([4]; day 1, D8, mean): 8.54
- SRaw ([4]; day 1, D8, mean): 36.01
- TV ([4]; day 1, D8, mean): 0.74 mL
- f ([4]; day 1, D8, mean): 259.13 breaths per minute
- MV ([4]; day 15, D4, mean): 176.12§
- PEF ([4]; day 15, D4, mean): 9.33*
- PIF ([4]; day 15, D4, mean): 7.82*
- SRaw ([4]; day 15, D4, mean): 33.09
- TV ([4]; day 15, D4, mean): 0.85
- f ([4]; day 15, D4, mean): 217.12 breaths per minute
- MV ([4]; day 15, D8, mean): 128.49
- PEF ([4]; day 15, D8, mean): 6.64
- PIF ([4]; day 15, D8, mean): 6.06
- SRaw ([4]; day 15, D8, mean): 49.26
- TV ([4]; day 15, D8, mean): 0.63
- f ([4]; day 15, D8, mean): 232.11 breaths per minute
- effect on lung function, in words ([4]; inhaled, 2-wk course): did not adversely affect lung function
- reduction in RVSP compared to the vehicle treated group (rat MCT model [5]; D4): 44%
- reduction in RVSP compared to the vehicle treated group (rat MCT model [5]; D8): 54%
- RV hypertrophy, ratio (RV+IVS)/LV weight (rat MCT model [5]; inhalation, two weeks, in words): significant reduction
- decrease of RV systolic pressure (rat MCT model [5]; rat MCT model, inhalation): 50%
